“Also recorded” adds a separate entry of the source.
Molecular target: T1, Jhdm2a (Homo sapiens, UniProt Q9Y4C1)
T1 construct: expressed in transfected cells; host or cells: 293T cells
T1 sequence (Q9Y4C1 1-1321): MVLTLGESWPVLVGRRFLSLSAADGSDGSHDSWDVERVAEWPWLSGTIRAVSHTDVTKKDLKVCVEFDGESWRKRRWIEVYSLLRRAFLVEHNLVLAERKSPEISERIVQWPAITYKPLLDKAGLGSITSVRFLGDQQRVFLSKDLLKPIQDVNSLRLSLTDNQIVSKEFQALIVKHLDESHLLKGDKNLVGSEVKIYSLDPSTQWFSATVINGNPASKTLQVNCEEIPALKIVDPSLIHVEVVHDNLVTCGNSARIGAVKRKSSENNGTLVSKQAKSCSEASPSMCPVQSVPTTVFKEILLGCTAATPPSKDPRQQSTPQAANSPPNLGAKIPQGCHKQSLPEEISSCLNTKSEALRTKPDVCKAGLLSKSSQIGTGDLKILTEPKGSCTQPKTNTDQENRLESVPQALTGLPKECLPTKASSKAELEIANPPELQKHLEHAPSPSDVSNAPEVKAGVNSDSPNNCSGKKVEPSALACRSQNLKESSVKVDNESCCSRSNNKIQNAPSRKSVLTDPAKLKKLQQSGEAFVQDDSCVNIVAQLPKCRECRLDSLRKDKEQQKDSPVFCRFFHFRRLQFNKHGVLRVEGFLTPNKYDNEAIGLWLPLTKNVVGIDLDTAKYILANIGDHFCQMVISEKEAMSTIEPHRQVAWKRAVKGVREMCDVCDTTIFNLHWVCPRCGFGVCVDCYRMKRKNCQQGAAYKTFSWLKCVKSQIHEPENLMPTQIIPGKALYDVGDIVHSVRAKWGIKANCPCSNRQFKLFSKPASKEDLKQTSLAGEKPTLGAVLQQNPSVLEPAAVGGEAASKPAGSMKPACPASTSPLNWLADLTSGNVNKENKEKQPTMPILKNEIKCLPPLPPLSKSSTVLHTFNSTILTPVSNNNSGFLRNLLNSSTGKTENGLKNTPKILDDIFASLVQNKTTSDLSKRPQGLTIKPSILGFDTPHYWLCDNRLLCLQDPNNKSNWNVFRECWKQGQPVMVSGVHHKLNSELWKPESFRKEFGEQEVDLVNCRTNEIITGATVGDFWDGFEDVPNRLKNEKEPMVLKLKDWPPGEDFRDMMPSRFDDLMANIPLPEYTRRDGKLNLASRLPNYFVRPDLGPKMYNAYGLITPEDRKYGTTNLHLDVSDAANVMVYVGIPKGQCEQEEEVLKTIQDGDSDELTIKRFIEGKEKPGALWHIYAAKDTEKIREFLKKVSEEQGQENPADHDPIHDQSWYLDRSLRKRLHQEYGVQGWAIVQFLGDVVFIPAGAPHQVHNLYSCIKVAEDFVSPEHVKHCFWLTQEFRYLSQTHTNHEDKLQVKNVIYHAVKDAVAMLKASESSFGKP
Test: Immunolabeling assay of Jhdm2a-induced H3K9 demethylation in 293T cells
Format: cell-based
Settings: 10 μM; 293T cells transfected with Jhdm2a-EGFP; vs DMSO
Excerpt: (A) Inhibition of Jhdm2a induced histone demethylation by DMOG. Blocking effects of DMOG on Jhdm2a were examined in 293T cells transfected with a plasmid expressing Jhdm2a-EGFP fusion protein. In control cells treated with DMSO, histone 3 lysine 9 dimethylation (H3K9diM) immunostaining signal was lost in Jhdm2a-GFP transfected cells (arrows). […] DAPI labels all cell nuclei. Scale bar: 20 μm. (B-D) show DMOG attenuates ESC-induced reactivation of Oct4 expression from adult NSCs. […] Representative plots from multiple experiments are shown (B). Reprogramming frequencies from multiple experiments were quantified (C) for fusion population with the 48-hour treatment of DMSO or DMOG. Data represent mean±SEM. (n=3; ** P<0.01, Student's t-test). Shown in (D) is the cumulative distribution plot of DsRed+ population with graded GFP fluorescence intensities for comparison of the reprogramming efficacy in the presence of DMSO or DMOG (n=3 experiments; * P<0.01, Kolmogorov-Smirnov test).
To confirm the blocking effects of DMOG on histone demethylases, an immuno labeling assay previously developed for JHDM2A was used. Overexpression of Jhdm2a in heterologous cell lines led to dramatic loss of H3K9 dimethylation, which was blocked by the DMOG treatment (10 μM FIG. 6A). […]

Compound: COC(=O)CNC(=O)C(=O)OC [DMOG, dimethyloxalylglycine]
- Jhdm2a-induced loss of H3K9 dimethylation: blocked; also recorded: H3K9 dimethylation signals are present in all cells

Reference: patent US20110136145A1, “METHODS FOR PROMOTING FUSION AND REPROGRAMMING OF SOMATIC CELLS” (THE JOHNS HOPKINS UNIVERSITY, priority 2008, published 2011)
